Source: ChEMBL document CHEMBL6083215, “Structure elucidation, absolute configuration, and biological evaluation of cyclic peroxides from the sponge Plakinastrella sp” (2024)

What was measured:
Format in all cases: functional
BT-549 = assay: Growth inhibition of human BT-549 cells
Hs-578T = assay: Growth inhibition of human HS 578T cells
LOX IMVI = assay: Growth inhibition of human LOX IMVI cells
UO-31 = assay: Growth inhibition of human UO-31 cells
HL-60(TB) = assay: Growth inhibition of human HL-60(TB) cells
MCF7 = assay: Growth inhibition of human MCF7 cells
MDA-MB-231 = assay: Growth inhibition of human MDA-MB-231 cells
MDA-MB-468 = assay: Growth inhibition of human MDA-MB-468 cells
T47D = assay: Growth inhibition of human T47D cells
SF-268 = assay: Growth inhibition of human SF-268 cells
SF-295 = assay: Growth inhibition of human SF-295 cells
SF-539 = assay: Growth inhibition of human SF-539 cells
SNB-19 = assay: Growth inhibition of human SNB-19 cells
SNB-75 = assay: Growth inhibition of human SNB-75 cells
U-251 = assay: Growth inhibition of human U-251 cells
COLO 205 = assay: Growth inhibition of human COLO 205 cells
HCC 2998 = assay: Growth inhibition of human HCC 2998 cells
HCT-116 = assay: Growth inhibition of human HCT-116 cells
HCT-15 = assay: Growth inhibition of human HCT-15 cells
HT-29 = assay: Growth inhibition of human HT-29 cells
KM12 = assay: Growth inhibition of human KM12 cells
SW-620 = assay: Growth inhibition of human SW620 cells
786-0 = assay: Growth inhibition of human 786-0 cells
A498 = assay: Growth inhibition of human A498 cells
ACHN = assay: Growth inhibition of human ACHN cells
CAKI-1 = assay: Growth inhibition of human CAKI-1 cells
RXF 393 = assay: Growth inhibition of human RXF 393 cells
SN12C = assay: Growth inhibition of human SN12C cells
TK-10 = assay: Growth inhibition of human TK-10 cells
CCRF-CEM = assay: Growth inhibition of human CCRF-CEM cells
K562 = assay: Growth inhibition of human K562 cells
MOLT-4 = assay: Growth inhibition of human MOLT-4 cells
RPMI-8226 = assay: Growth inhibition of human RPMI-8226 cells
SR = assay: Growth inhibition of human SR cells
A549 = assay: Growth inhibition of human A549 cells
EKVX = assay: Growth inhibition of human EKVX cells
HOP-62 = assay: Growth inhibition of human HOP-62 cells
HOP-92 = assay: Growth inhibition of human HOP-92 cells
NCI-H226 = assay: Growth inhibition of human NCI-H226 cells
NCI-H23 = assay: Growth inhibition of human NCI-H23 cells
NCI-H322M = assay: Growth inhibition of human NCI-H322M cells
NCI-H460 = assay: Growth inhibition of human NCI-H460 cells
NCI-H522 = assay: Growth inhibition of human NCI-H522 cells
M14 = assay: Growth inhibition of human M14 cells
Malme-3M = assay: Growth inhibition of human Malme-3M cells
MDA-MB-435 = assay: Growth inhibition of human MDA-MB-435 cells
SK-MEL-2 = assay: Growth inhibition of human SK-MEL-2 cells
SK-MEL-28 = assay: Growth inhibition of human SK-MEL-28 cells
SK-MEL-5 = assay: Growth inhibition of human SK-MEL-5 cells
UACC-257 = assay: Growth inhibition of human UACC-257 cells
UACC-62 = assay: Growth inhibition of human UACC-62 cells
IGROV-1 = assay: Growth inhibition of human IGROV-1 cells
OVCAR-3 = assay: Growth inhibition of human OVCAR-3 cells
OVCAR-4 = assay: Growth inhibition of human OVCAR-4 cells
OVCAR-5 = assay: Growth inhibition of human OVCAR-5 cells
OVCAR-8 = assay: Growth inhibition of human OVCAR-8 cells
SK-OV-3 = assay: Growth inhibition of human SK-OV-3 cells
NCI/ADR-RES = assay: Growth inhibition of human NCI-ADR-RES cells
DU-145 = assay: Growth inhibition of human DU-145 cells
PC-3 = assay: Growth inhibition of human PC-3 cells

Q: Which GI50 (BT-549) does the source give for `CCCCCCCCC/C=C(/C)C[C@]1(C)C[C@H](C)[C@@H](CC(=O)O)OO1` here?
A: Its GI50 is 0.98 µM.

Q: And the GI50 (Hs-578T)?
A: Its GI50 is 0.98 µM.

Q: What about the GI50 (LOX IMVI) of the same molecule?
A: The GI50 was 0.11 µM.

Q: What about the GI50 (UO-31) of the same molecule?
A: Its GI50 is 0.19 µM.

Q: What about the GI50 (HL-60(TB)) of the same molecule?
A: Its GI50 is 0.22 µM.

Q: What about the GI50 (MCF7) of the same molecule?
A: Its GI50 is 0.98 µM.

Q: What about the GI50 (MDA-MB-231) of the same molecule?
A: The GI50 was 0.98 µM.

Q: And the GI50 (MDA-MB-468)?
A: The GI50 was 0.98 µM.

Q: What about the GI50 (T47D) of the same molecule?
A: The GI50 was 0.98 µM.

Q: And the GI50 (SF-268)?
A: Its GI50 is 0.98 µM.

Q: And the GI50 (SF-295)?
A: Its GI50 is 0.98 µM.

Q: What about the GI50 (SF-539) of the same molecule?
A: The GI50 was 0.98 µM.

Q: What about the GI50 (SNB-19) of the same molecule?
A: Its GI50 is 0.98 µM.

Q: What about the GI50 (SNB-75) of the same molecule?
A: Its GI50 is 0.98 µM.

Q: And the GI50 (U-251)?
A: Its GI50 is 0.98 µM.

Q: And the GI50 (COLO 205)?
A: The GI50 was 0.98 µM.

Q: And the GI50 (HCC 2998)?
A: Its GI50 is 0.98 µM.

Q: What about the GI50 (HCT-116) of the same molecule?
A: The GI50 was 0.98 µM.

Q: And the GI50 (HCT-15)?
A: Its GI50 is 0.98 µM.

Q: And the GI50 (HT-29)?
A: Its GI50 is 0.98 µM.

Q: What about the GI50 (KM12) of the same molecule?
A: Its GI50 is 0.98 µM.

Q: And the GI50 (SW-620)?
A: Its GI50 is 0.98 µM.

Q: What about the GI50 (786-0) of the same molecule?
A: The GI50 was 0.98 µM.

Q: And the GI50 (A498)?
A: The GI50 was 0.98 µM.

Q: And the GI50 (ACHN)?
A: The GI50 was 0.98 µM.

Q: And the GI50 (CAKI-1)?
A: Its GI50 is 0.98 µM.

Q: And the GI50 (RXF 393)?
A: Its GI50 is 0.98 µM.

Q: What about the GI50 (SN12C) of the same molecule?
A: The GI50 was 0.98 µM.

Q: And the GI50 (TK-10)?
A: The GI50 was 0.98 µM.

Q: What about the GI50 (CCRF-CEM) of the same molecule?
A: Its GI50 is 0.98 µM.

Q: What about the GI50 (K562) of the same molecule?
A: Its GI50 is 0.98 µM.

Q: What about the GI50 (MOLT-4) of the same molecule?
A: Its GI50 is 0.98 µM.

Q: What about the GI50 (RPMI-8226) of the same molecule?
A: The GI50 was 0.98 µM.

Q: What about the GI50 (SR) of the same molecule?
A: The GI50 was 0.98 µM.

Q: And the GI50 (A549)?
A: Its GI50 is 0.98 µM.

Q: What about the GI50 (EKVX) of the same molecule?
A: The GI50 was 0.98 µM.

Q: What about the GI50 (HOP-62) of the same molecule?
A: Its GI50 is 0.98 µM.

Q: What about the GI50 (HOP-92) of the same molecule?
A: The GI50 was 0.98 µM.

Q: What about the GI50 (NCI-H226) of the same molecule?
A: Its GI50 is 0.98 µM.

Q: And the GI50 (NCI-H23)?
A: The GI50 was 0.98 µM.

Q: And the GI50 (NCI-H322M)?
A: The GI50 was 0.98 µM.

Q: What about the GI50 (NCI-H460) of the same molecule?
A: Its GI50 is 0.98 µM.

Q: And the GI50 (NCI-H522)?
A: The GI50 was 0.98 µM.

Q: And the GI50 (M14)?
A: Its GI50 is 0.98 µM.

Q: What about the GI50 (Malme-3M) of the same molecule?
A: The GI50 was 0.98 µM.

Q: And the GI50 (MDA-MB-435)?
A: Its GI50 is 0.98 µM.

Q: What about the GI50 (SK-MEL-2) of the same molecule?
A: The GI50 was 0.98 µM.

Q: What about the GI50 (SK-MEL-28) of the same molecule?
A: Its GI50 is 0.98 µM.

Q: And the GI50 (SK-MEL-5)?
A: Its GI50 is 0.98 µM.

Q: And the GI50 (UACC-257)?
A: The GI50 was 0.98 µM.

Q: And the GI50 (UACC-62)?
A: Its GI50 is 0.98 µM.

Q: What about the GI50 (IGROV-1) of the same molecule?
A: Its GI50 is 0.98 µM.

Q: And the GI50 (OVCAR-3)?
A: Its GI50 is 0.98 µM.

Q: What about the GI50 (OVCAR-4) of the same molecule?
A: Its GI50 is 0.98 µM.

Q: And the GI50 (OVCAR-5)?
A: The GI50 was 0.98 µM.

Q: What about the GI50 (OVCAR-8) of the same molecule?
A: Its GI50 is 0.98 µM.

Q: And the GI50 (SK-OV-3)?
A: Its GI50 is 0.98 µM.

Q: What about the GI50 (NCI/ADR-RES) of the same molecule?
A: Its GI50 is 0.98 µM.

Q: And the GI50 (DU-145)?
A: The GI50 was 0.98 µM.

Q: And the GI50 (PC-3)?
A: The GI50 was 0.98 µM.

Q: What does the source list for `COc1cccc2c1C(=O)c1c(O)c3c(c(O)c1C2=O)C[C@@](O)(C(=O)CO)C[C@@H]3O[C@H]1C[C@H](N)[C@H](O)[C@H](C)O1` [DOXORUBICIN]?
A: GI50 (BT-549): 0.12 µM; GI50 (Hs-578T): 0.12 µM; GI50 (MCF7): 0.12 µM; GI50 (MDA-MB-231): 0.12 µM; GI50 (MDA-MB-468): 0.12 µM; GI50 (T47D): 0.12 µM; GI50 (SF-268): 0.12 µM; GI50 (SF-295): 0.12 µM; GI50 (SF-539): 0.12 µM; GI50 (SNB-19): 0.12 µM; GI50 (SNB-75): 0.12 µM; GI50 (U-251): 0.12 µM; GI50 (COLO 205): 0.12 µM; GI50 (HCC 2998): 0.12 µM; GI50 (HCT-116): 0.12 µM; GI50 (HCT-15): 0.12 µM; GI50 (HT-29): 0.12 µM; GI50 (KM12): 0.12 µM; GI50 (SW-620): 0.12 µM; GI50 (786-0): 0.12 µM; GI50 (A498): 0.12 µM; GI50 (ACHN): 0.12 µM; GI50 (CAKI-1): 0.12 µM; GI50 (RXF 393): 0.12 µM; GI50 (SN12C): 0.12 µM; GI50 (TK-10): 0.12 µM; GI50 (CCRF-CEM): 0.12 µM; GI50 (K562): 0.12 µM; GI50 (MOLT-4): 0.12 µM; GI50 (RPMI-8226): 0.12 µM; GI50 (SR): 0.12 µM; GI50 (A549): 0.12 µM; GI50 (EKVX): 0.12 µM; GI50 (HOP-62): 0.12 µM; GI50 (HOP-92): 0.12 µM; GI50 (NCI-H226): 0.12 µM; GI50 (NCI-H23): 0.12 µM; GI50 (NCI-H322M): 0.12 µM; GI50 (NCI-H460): 0.12 µM; GI50 (NCI-H522): 0.12 µM; GI50 (M14): 0.12 µM; GI50 (Malme-3M): 0.12 µM; GI50 (MDA-MB-435): 0.12 µM; GI50 (SK-MEL-2): 0.12 µM; GI50 (SK-MEL-28): 0.12 µM; GI50 (SK-MEL-5): 0.12 µM; GI50 (UACC-257): 0.12 µM; GI50 (UACC-62): 0.12 µM; GI50 (IGROV-1): 0.12 µM; GI50 (OVCAR-3): 0.12 µM; GI50 (OVCAR-4): 0.12 µM; GI50 (OVCAR-5): 0.12 µM; GI50 (OVCAR-8): 0.12 µM; GI50 (SK-OV-3): 0.12 µM; GI50 (NCI/ADR-RES): 0.12 µM; GI50 (DU-145): 0.12 µM; GI50 (PC-3): 0.12 µM
